Test results published in patent publication US6825170B2, “6-O-acyl ketolide antibacterials” (Ortho-McNeil Pharmaceutical, Inc., priority 2001, dated 2004).
≈ marks a conversion by molar mass, not a printed value.

Columns and labels:
Test in all cases: MIC, microdilution broth method (NCCLS)
Type in all cases: cell-based
Conditions in all cases: 35° C., 16-20 hours
E. faecalis ATCC29212 = test system: E. faecalis ATCC29212
Procedure: (§1) Minimal inhibitory concentration (MIC) has been an indicator of in vitro antibacterial activity widely used in the art. The in vitro antimicrobial activity of the compounds was determined by the microdilution broth method following the test method from the National Committee for Clinical Laboratory Standards (NCCLS). This method is described in the NCCLS Document M7-A4, Vol.17, No.2, “Methods for Dilution Antimicrobial Susceptibility Test for Bacteria that Grow Aerobically—Fourth Edition”, which is incorporated herein by reference.
(§2) In this method two-fold serial dilutions of drug in cation adjusted Mueller-Hinton broth are added to wells in microdilution trays. The test organisms are prepared by adjusting the turbidity of actively growing broth cultures so that the final concentration of test organism after it is added to the wells is approximately 5×10^4 CFU/well.
(§3) Following inoculation of the microdilution trays, the trays are incubated at 35° C. for 16-20 hours and then read. […] The amount of growth in the wells containing the test compound is compared with the amount of growth in the growth-control wells (no test compound) used in each tray. As set forth in Table 1, compounds of the present invention were tested against a variety of Gram positive and Gram negative pathogenic bacteria resulting in a range of activities depending on the organism tested.

H. influenzae ATCC49247 = test system: H. influenzae ATCC49247
Procedure: as §1, §2, §3

S. aureus ATCC29213 = test system: S. aureus ATCC29213
Procedure: as §1, §2, §3

S. pneumoniae ATCC49619 = test system: S. pneumoniae ATCC49619
Procedure: as §1, §2, §3

Row | MIC (C: E. faecalis ATCC29212) (E. faecalis ATCC29212) [µg/mL] | MIC (E: H. influenzae ATCC49247) (H. influenzae ATCC49247) [µg/mL] | MIC (B: S. aureus ATCC29213) (S. aureus ATCC29213) [µg/mL] | MIC (D: S. pneumoniae ATCC49619) (S. pneumoniae ATCC49619) | Structure (SMILES)
1 | 0.06 (≈ 0.0711 µM) | 1 (≈ 1.18 µM) | 0.12 (≈ 0.142 µM) | 0.03 µg/mL (≈ 0.0355 µM) | CCC1OC(=O)C(C)C(=O)C(C)C(OC2OC(C)CC(N(C)C)C2O)C(C)(OC(=O)OCC=Cc2ccc(-n3cncn3)c(F)c2)CC(C)C(=O)C(C)C2NC(=O)OC12C (stereo not shown) [Compound 31]
2 | 0.12 (≈ 0.145 µM) | 1 (≈ 1.21 µM) | 0.25 (≈ 0.303 µM) | 0.06 µg/mL (≈ 0.0727 µM) | CCC1OC(=O)C(C)C(=O)C(C)C(OC2OC(C)CC(N(C)C)C2O)C(C)(OC(=O)OCC=Cc2cnn(-c3ccccc3)c2)CC(C)C(=O)C(C)C2NC(=O)OC12C (stereo not shown) [Compound 33]
3 | 0.06 (≈ 0.0741 µM) | 0.5 (≈ 0.617 µM) | 0.12 (≈ 0.148 µM) | ≦0.015 μg/mL | CCC1OC(=O)C(C)C(=O)C(C)C(OC2OC(C)CC(N(C)C)C2O)C(C)(OC(=O)OCC=Cc2cnc3ccccc3c2)CC(C)C(=O)C(C)C2NC(=O)OC12C (stereo not shown) [Compound 37]
4 | 0.06 (≈ 0.0726 µM) | 0.5 (≈ 0.605 µM) | 0.12 (≈ 0.145 µM) | ≦0.015 μg/mL | CCC1OC(=O)C(C)C(=O)C(C)C(OC2OC(C)CC(N(C)C)C2O)C(C)(OC(=O)OCC=Cc2ccc(-c3ncco3)cc2)CC(C)C(=O)C(C)C2NC(=O)OC12C (stereo not shown) [Compound 47]
5 | 0.12 (≈ 0.145 µM) | 1 (≈ 1.21 µM) | 0.12 (≈ 0.145 µM) | 0.03 µg/mL (≈ 0.0363 µM) | CCC1OC(=O)C(C)C(=O)C(C)C(OC2OC(C)CC(N(C)C)C2O)C(C)(OC(=O)OCC=Cc2ccc(-c3cnco3)cc2)CC(C)C(=O)C(C)C2NC(=O)OC12C (stereo not shown) [Compound 48]
6 | 0.5 (≈ 0.595 µM) | 2 (≈ 2.38 µM) | 1 (≈ 1.19 µM) | 0.06 µg/mL (≈ 0.0713 µM) | CCC1OC(=O)C(C)C(=O)C(C)C(OC2OC(C)CC(N(C)C)C2O)C(C)(OC(=O)OCC=Cc2ccc(-c3cccs3)cc2)CC(C)C(=O)C(C)C2NC(=O)OC12C (stereo not shown) [Compound 50]
7 | 0.12 (≈ 0.148 µM) | 1 (≈ 1.23 µM) | 0.25 (≈ 0.308 µM) | 0.03 µg/mL (≈ 0.0369 µM) | CCC1OC(=O)C(C)C(=O)C(C)C(OC2OC(C)CC(N(C)C)C2O)C(C)(OC(=O)OCC=Cc2nc3ccccc3n2C)CC(C)C(=O)C(C)C2NC(=O)OC12C (stereo not shown) [Compound 55]
8 | 0.06 (≈ 0.0717 µM) | 2 (≈ 2.39 µM) | 0.25 (≈ 0.299 µM) | 0.03 µg/mL (≈ 0.0358 µM) | CCC1OC(=O)C(C)C(=O)C(C)C(OC2OC(C)CC(N(C)C)C2O)C(C)(OC(=O)OCC=Cc2cnc(-c3ccccc3)nc2)CC(C)C(=O)C(C)C2NC(=O)OC12C (stereo not shown) [Compound 72]

More lines, now with the values behind:

Row | Structure (SMILES) | MIC (C: E. faecalis ATCC29212) (E. faecalis ATCC29212) [µg/mL] | MIC (E: H. influenzae ATCC49247) (H. influenzae ATCC49247) [µg/mL] | MIC (B: S. aureus ATCC29213) (S. aureus ATCC29213) [µg/mL] | MIC (D: S. pneumoniae ATCC49619) (S. pneumoniae ATCC49619)
9 | CCC1OC(=O)C(C)C(=O)C(C)C(OC2OC(C)CC(N(C)C)C2O)C(C)(OC(=O)OCC=Cc2cn(-c3ncccn3)cn2)CC(C)C(=O)C(C)C2NC(=O)OC12C (stereo not shown) [Compound 34] | 0.12 (≈ 0.145 µM) | 1 (≈ 1.21 µM) | 0.25 (≈ 0.302 µM) | 0.03 µg/mL (≈ 0.0363 µM)
10 | CCC1OC(=O)C(C)C(=O)C(C)C(OC2OC(C)CC(N(C)C)C2O)C(C)(OC(=O)OCC=Cc2cn(-c3cnccn3)cn2)CC(C)C(=O)C(C)C2NC(=O)OC12C (stereo not shown) [Compound 35] | 0.12 (≈ 0.145 µM) | 1 (≈ 1.21 µM) | 0.25 (≈ 0.302 µM) | 0.03 µg/mL (≈ 0.0363 µM)
11 | CCC1OC(=O)C(C)C(=O)C(C)C(OC2OC(C)CC(N(C)C)C2O)C(C)(OC(=O)OCC=Cc2ccc(-c3nccs3)cc2)CC(C)C(=O)C(C)C2NC(=O)OC12C (stereo not shown) [Compound 49] | 0.12 (≈ 0.143 µM) | 1 (≈ 1.19 µM) | 0.12 (≈ 0.143 µM) | 0.03 µg/mL (≈ 0.0356 µM)
12 | CCC1OC(=O)C(C)C(=O)C(C)C(OC2OC(C)CC(N(C)C)C2O)C(C)(OC(=O)OCC=Cc2ccc(-c3nnco3)cc2)CC(C)C(=O)C(C)C2NC(=O)OC12C (stereo not shown) [Compound 52] | 0.06 (≈ 0.0726 µM) | 1 (≈ 1.21 µM) | 0.12 (≈ 0.145 µM) | ≦0.015 μg/mL
13 | CCC1OC(=O)C(C)C(=O)C(C)C(OC2OC(C)CC(N(C)C)C2O)C(C)(OC(=O)OCC=Cc2ccc(-c3ncc(Br)cn3)cc2)CC(C)C(=O)C(C)C2NC(=O)OC12C (stereo not shown) [Compound 56] | 0.25 (≈ 0.273 µM) | 2 (≈ 2.18 µM) | 0.5 (≈ 0.546 µM) | 0.06 µg/mL (≈ 0.0655 µM)
14 | CCc1cnc(-c2ccc(C=CCOC(=O)OC3(C)CC(C)C(=O)C(C)C4NC(=O)OC4(C)C(CC)OC(=O)C(C)C(=O)C(C)C3OC3OC(C)CC(N(C)C)C3O)cc2)nc1 (stereo not shown) [Compound 58] | 0.5 (≈ 0.578 µM) | 4 (≈ 4.62 µM) | 0.5 (≈ 0.578 µM) | 0.06 µg/mL (≈ 0.0694 µM)
15 | CCC1OC(=O)C(C)C(=O)C(C)C(OC2OC(C)CC(N(C)C)C2O)C(C)(OC(=O)OCC=Cc2ccc(-c3ccc(C)nn3)cc2)CC(C)C(=O)C(C)C2NC(=O)OC12C (stereo not shown) [Compound 61] | 0.12 (≈ 0.141 µM) | 1 (≈ 1.18 µM) | 0.12 (≈ 0.141 µM) | 0.03 µg/mL (≈ 0.0353 µM)
16 | CCC1OC(=O)C(C)C(=O)C(C)C(OC2OC(C)CC(N(C)C)C2O)C(C)(OC(=O)OCC=Cc2ccc(-c3ccccn3)s2)CC(C)C(=O)C(C)C2NC(=O)OC12C (stereo not shown) [Compound 63] | 0.12 (≈ 0.143 µM) | 1 (≈ 1.19 µM) | 0.25 (≈ 0.297 µM) | 0.06 µg/mL (≈ 0.0713 µM)
17 | CCC1OC(=O)C(C)C(=O)C(C)C(OC2OC(C)CC(N(C)C)C2O)C(C)(OC(=O)OCC=Cc2ccc(-c3ncccn3)s2)CC(C)C(=O)C(C)C2NC(=O)OC12C (stereo not shown) [Compound 64] | 0.06 (≈ 0.0712 µM) | 1 (≈ 1.19 µM) | 0.12 (≈ 0.142 µM) | 0.03 µg/mL (≈ 0.0356 µM)
18 | CCC1OC(=O)C(C)C(=O)C(C)C(OC2OC(C)CC(N(C)C)C2O)C(C)(OC(=O)OCC=Cc2ccc(-c3cnccn3)s2)CC(C)C(=O)C(C)C2NC(=O)OC12C (stereo not shown) [Compound 65] | 0.12 (≈ 0.142 µM) | 1 (≈ 1.19 µM) | 0.25 (≈ 0.297 µM) | 0.03 µg/mL (≈ 0.0356 µM)
19 | CCC1OC(=O)C(C)C(=O)C(C)C(OC2OC(C)CC(N(C)C)C2O)C(C)(OC(=O)OCC=Cc2ccc(-c3cccs3)s2)CC(C)C(=O)C(C)C2NC(=O)OC12C (stereo not shown) [Compound 73] | 1 (≈ 1.18 µM) | 16 (≈ 18.9 µM) | 2 (≈ 2.36 µM) | 0.25 µg/mL (≈ 0.295 µM)
20 | CCC1OC(=O)C(C)C(=O)C(C)C(OC2OC(C)CC(N(C)C)C2O)C(C)(OC(=O)OCC=C(C)c2ccc(-c3ncccn3)cc2)CC(C)C(=O)C(C)C2NC(=O)OC12C (stereo not shown) [Compound 76] | 0.12 (≈ 0.141 µM) | 1 (≈ 1.18 µM) | 0.25 (≈ 0.294 µM) | 0.03 µg/mL (≈ 0.0353 µM)
21 | CCC1OC(=O)C(C)C(=O)C(C)C(OC2OC(C)CC(N(C)C)C2O)C(C)(OC(=O)OCC#Cc2cc(-c3ccccn3)no2)CC(C)C(=O)C(C)C2NC(=O)OC12C (stereo not shown) [Compound 122] | 0.06 (≈ 0.0727 µM) | 1 (≈ 1.21 µM) | 0.12 (≈ 0.145 µM) | ≦0.015 μg/mL
22 | CCC1OC(=O)C(C)C(=O)C(C)C(OC2OC(C)CC(N(C)C)C2O)C(C)(OC(=O)OCCC#Cc2ccc(-c3ncccn3)cc2)CC(C)C(=O)C(C)C2NC(=O)OC12C (stereo not shown) [Compound 137] | 0.12 (≈ 0.141 µM) | 4 (≈ 4.71 µM) | 0.25 (≈ 0.294 µM) | 0.03 µg/mL (≈ 0.0353 µM)
23 | CCC1OC(=O)C(C)C(=O)C(C)C(OC2OC(C)CC(N(C)C)C2O)C(C)(OC(=O)OCCCn2cnc3ccccc32)CC(C)C(=O)C(C)C2NC(=O)OC12C (stereo not shown) [Compound 159] | 0.12 (≈ 0.15 µM) | 1 (≈ 1.25 µM) | 0.25 (≈ 0.312 µM) | 0.03 µg/mL (≈ 0.0375 µM)
24 | CCC1OC(=O)C(C)C(=O)C(C)C(OC2OC(C)CC(N(C)C)C2O)C(C)(OC(=O)OCC(F)=Cc2ccc(-c3ncccn3)cc2)CC(C)C(=O)C(C)C2NC(=O)OC12C (stereo not shown) [Compound 160] | 0.06 (≈ 0.0702 µM) | 1 (≈ 1.17 µM) | 0.12 (≈ 0.14 µM) | 0.03 µg/mL (≈ 0.0351 µM)
25 | CCC1OC(=O)C(C)C(=O)C(C)C(OC2OC(C)CC(N(C)C)C2O)C(C)(OC(=O)OCC(F)=Cc2ccc(-c3cccnn3)cc2)CC(C)C(=O)C(C)C2NC(=O)OC12C (stereo not shown) [Compound 168] | 0.06 (≈ 0.0702 µM) | 0.5 (≈ 0.585 µM) | 0.12 (≈ 0.14 µM) | ≦0.015 μg/mL
